We go through 34 compounds from patent US20250042880A1 (UNIVERSITY OF KENTUCKY RESEARCH FOUNDATION, priority 2021, published 2025).

One data set concerns LS174T xenografts. In words: LS174T xenografts in SCID mice. The format is in vivo, mouse. The note with it: BAY-876 3 mg/kg/day, DBI-1 40 mg/kg/day. On the procedure: In vivo evaluation of anti-cancer activity in LS174T xenografts—The mouse studies were conducted with the approval of the University of Kentucky Institutional Animal Care and Use Committee (2020-3531). All methods were carried out in compliance with the relevant guidelines and regulations according to protocols. The LS174T cells in exponential growth phase were trypsinized and resuspended in 50% Matrigel (Corning, Glendale, Arizona). Cells (1.2×10^6) were subcutaneously injected on the lower flanks of severe combined immunodeficient mice. The tumor volumes were calculated based on the formula Length×width^2/2. When tumors reached an average volume of 100 mm^3, the mice were divided into control and treatment groups (3 male and 3 female mice/group, two tumors on each mouse). After tumors were established, BAY-876 was given to the mice by gavage feeding to the BAY-876 group at the dose of 3 mg/kg/day. DBI-1 was daily intraperitoneally (i.p.) administered to the DBI-1 group at dose of 40 mg/kg mouse body weight. Mice in the combination treatment group were administered both oral BAY-876 at the dose of 3 mg/kg/day and i.p. DBI-1 at dose of 40 mg/kg mouse body weight. Tumors and mouse weights were measured every three days and the experiment was stopped at day 12. Tumors were isolated and fixed in 10% neutral buffered formalin. Tumor sections were analyzed with H&E and Ki-67 staining at Markey Cancer Center's Biospecimen Procurement and Translational Pathology Shared Resource Facility (BPTP SRF).

Another data set deals with HCT116 cells. As to the kind of experiment: Cell proliferation inhibition assay, HCT116. As to conditions: for inhibition at 1 µM / inhibition at 3 µM / inhibition at 10 µM: Homo sapiens; for inhibition at 1 µM: HCT-116, 1 μM; for inhibition at 3 µM: HCT-116, 3 μM; for inhibition at 10 µM: HCT-116, 10 μM. The format is cell-based. On the procedure: (§1) Cell proliferation inhibition assay-Cell proliferation inhibition assay was performed as previously reported (48). All compounds to be tested were dissolved at 10 mM in DMSO. The cells were seeded into 12-well plates at a density of 40,000 cells per well in 1 mL of culture medium and were cultured overnight at 37° C. Either 1 μL of the compounds or the vehicle control (DMSO) was added to the cells. After 5 days, the medium was removed, and 200 μL of 0.25% trypsin was added. The cells were resuspended in 800 μL phosphate-buffered saline (PBS) and counted with Vi-CELL XR 2.03 (Beckman Coulter, Inc. USA). The ratio R of the number of viable cells in the compound-treated group to the number of viable cells in the DMSO-treated group was called relative growth rate, and the growth inhibition was calculated as (1−R)*100.
(§2) Cell proliferation inhibition assay was conducted according to a previous report (48). The cells were split into 12-well plates at a density of 40,000 cells per well in 1 mL of culture medium and were cultured overnight at 37° C. Either 1 μL of the compounds dissolved at 10 mmol/L in DMSO or the vehicle control (DMSO) was added to the cells. After 5 days, removed the medium, and 200 μL of 0.25% trypsin was added. The cells were resuspended in phosphate-buffered saline (PBS) and counted with Vi-CELL XR 2.03 (Beckman Coulter, Inc. USA). The ratio R of the number of viable cells in the compound treatment group to the number of viable cells in the DMSO treatment group was defined as the relative growth rate, and the growth inhibition rate was calculated as (1−R)*100.

The subject of the next data set is OCV-8 Cell. As to the kind of experiment: OCV-8 cell inhibition. The format is cell-based. The note with it: read-out: OCV-8 Cell Inhibiton; for inhibition at 0.3 µM: 300 nM.
A further data set has as its system LS174T cells. In words: Cell proliferation inhibition assay, LS174T. As to conditions: for combinational effect with BAY-876 on proliferation of LS174T cells: in combination with BAY-876. The format is cell-based. On the procedure: as §1, §2
For the next data set, the system named is Pt2377 cells. In words: Cell proliferation inhibition assay, Pt2377. The note with it: 120 h; 5 days, viable cells counted. The format is cell-based. On the procedure:
as §1

The conditions of data set [1]: cited from earlier work.

In general, IC50 refers to the concentration that gives 50% inhibition. Higher therefore signals lower potency.

`CN(C)CCN(C)CCCCOc1ccc2c(=O)c(-c3ccc(Br)cc3)coc2c1` [DBI-1, 3-(4-Bromophenyl)-7-(4-((2-(dimethylamino)ethyl)(methyl)amino)butoxy)-4H-chromen-4-one]: the “toxicity based on mice body weight growth rate” value with LS174T xenografts was “No significant toxicity”. Besides, the inhibition at 1 µM in the data set with HCT116 cells was 45%; with OCV-8 Cell, 96%. In the data set with OCV-8 Cell, the inhibition at 0.3 µM turned out to be 57%. For the same compound, the concentration for half-maximal inhibition (IC50) in the data set on LS174T cells (Homo sapiens, LS174T, 120 h, 5 days, viable cells counted) was found to be 1200 nM; with Pt2377 cells, 1400 nM.
As to `Cc1nc(-c2nc(-c3ccc(OC(F)(F)F)cc3)no2)nn1Cc1cccc(N2CCC(S(C)(=O)=O)CC2)c1` [IACS-010759], the “tolerability in preclinical models” value in data set [1] (25 mg/kg/day) is “not tolerated”. Also, the “antitumor effect in preclinical models” value in data set [1] (5-10 mg/kg/day) is on record as “tumor regression”.
`CN(C)C(=N)N=C(N)N` [Metformin]: the “combinational effect with BAY-876 on proliferation of LS174T cells” value in the data set on LS174T cells is recorded as “synergistical effects with BAY-876”.
As to `C=C(C)[C@H]1Cc2c(ccc3c2O[C@@H]2COc4cc(OC)c(OC)cc4[C@@H]2C3=O)O1` [Rotenone], in the data set on LS174T cells, the “combinational effect with BAY-876 on proliferation of LS174T cells” value was “synergistical effects with BAY-876”.
In the data set with HCT116 cells, `O=c1c(-c2ccc(F)cc2)coc2cc(OCCN3CCNCC3)ccc12` [WZY-1-31] displayed an inhibition at 3 µM of 0% and an inhibition at 10 µM of 89%.
The corresponding values for `O=c1c(-c2ccc(F)cc2)coc2cc(OCCN3CCN(CCO)CC3)ccc12` [WZY-1-33] are 0% and 35%.
In the data set with HCT116 cells, `O=c1c(-c2ccc(Cl)cc2)coc2cc(OCCN3CCNCC3)ccc12` [WZY-1-43] had an inhibition at 3 µM of 92% and an inhibition at 10 µM of 93%. Moreover, in the data set on OCV-8 Cell, the inhibition at 0.3 µM worked out at 31% and the inhibition at 1 µM was 97%.
The corresponding values for `O=c1c(-c2ccc(Br)cc2)coc2cc(OCCN3CCNCC3)ccc12` [WZY-1-45] are 94%, 93%, 43% and 97%.
In the data set on HCT116 cells, `O=c1c(-c2ccc(Cl)cc2)coc2cc(OCCN3CCN(CCO)CC3)ccc12` [WZY-1-47] came in with an inhibition at 3 µM of 50% and an inhibition at 10 µM of 94%.
As for `O=c1c(-c2ccc(Br)cc2)coc2cc(OCCN3CCN(CCO)CC3)ccc12` [WZY-1-49], in the data set with HCT116 cells, the inhibition at 3 µM came to 80% and the inhibition at 10 µM was 94%.
The corresponding values for `COc1ccc(-c2coc3cc(OCCN4CCNCC4)ccc3c2=O)cc1` [WZY-1-59] are 0% and 92%.
The corresponding values for `COc1ccc(-c2coc3cc(OCCN4CCN(CCO)CC4)ccc3c2=O)cc1` [WZY-1-61] are 0% and 52%.
The corresponding values for `O=c1c(-c2ccccc2F)coc2cc(OCCN3CCN(CCO)CC3)ccc12` [WZY-1-67] are 0% and 0%.
As for `O=c1c(-c2ccc(Br)cc2)coc2cc(OCCN3CCOCC3)ccc12` [WZY-1-77], the inhibition at 3 µM in the data set on HCT116 cells came out at 61.4%.
As to `O=c1c(-c2ccc(Br)cc2)coc2cc(OCCCCN3CCNCC3)ccc12` [WZY-1-91], the inhibition at 3 µM in the data set with HCT116 cells worked out at 99.9%. Further, in the data set on OCV-8 Cell, the inhibition at 0.3 µM was 34% and the inhibition at 1 µM stood at 94%.
The corresponding values for `O=c1c(-c2ccc(Br)cc2)coc2cc(OCCCCN3CCN(CCO)CC3)ccc12` [WZY-1-95] are 99%, 30% and 93%.
`O=c1c(-c2ccc(Br)cc2)coc2cc(OCCCCCCCCN3CCN(CCO)CC3)ccc12` [WZY-1-97] returned an inhibition at 3 µM in the data set with HCT116 cells of 99.7%. Moreover, in the data set with OCV-8 Cell, the inhibition at 0.3 µM was found to be 39% and the inhibition at 1 µM was found to be 96%.
In the data set with HCT116 cells, `O=c1c(-c2ccc(Br)cc2)coc2cc(OCCCCCCCCN3CCOCC3)ccc12` [WZY-1-101] gave an inhibition at 3 µM of 50.6%.
`O=c1c(-c2ccc(Br)cc2)coc2cc(OCCCCCCCCN3CCSCC3)ccc12` [WZY-1-103] showed an inhibition at 3 µM in the data set with HCT116 cells of 42.6%.
The same measure, in the same setting: the same measure for `O=c1c(-c2ccc(Br)cc2)coc2cc(OCCCCN3CCOCC3)ccc12` [WZY-1-113]: 62.7%.
Same read-out and setting: in the case of `O=c1c(-c2ccc(Cl)cc2Cl)coc2cc(OCCN3CCNCC3)ccc12` [WZY-1-123] it was 67.1%; in that of `O=c1c(-c2ccc(Cl)cc2Cl)coc2cc(OCCN3CCN(CCO)CC3)ccc12` [WZY-1-125], 43.1%.
Same read-out and setting: in the case of `O=c1c(-c2ccccc2Cl)coc2cc(OCCN3CCN(CCO)CC3)ccc12` [WZY-1-129] it was 13%.
`O=c1c(-c2ccc(Br)cc2)coc2cc(OCCn3ccnc3)ccc12` [WZY-1-131] showed an inhibition at 3 µM in the data set on HCT116 cells of 22%.
On the same count and under the same terms, the same measure for `O=c1c(-c2ccc(Br)cc2)coc2cc(OCCCCn3ccnc3)ccc12` [WZY-1-139]: 58.7%.
With `O=c1c(-c2ccc(Br)cc2)coc2cc(OCCCCn3cccn3)ccc12` [WZY-1-141], the inhibition at 3 µM in the data set with HCT116 cells was determined as 63.9%.
Still for that read-out and setting: in the case of `O=c1c(-c2ccc(Br)cc2)coc2cc(OCCCCCCCCn3ccnc3)ccc12` [WZY-1-143] it was 61.2%.
In the case of `O=c1c(-c2ccc(Cl)cc2)coc2cc(OCCN3CCOCC3)ccc12` [WZY-1-149], the inhibition at 3 µM in the data set with HCT116 cells turned out to be 51.4%.
With `O=c1c(-c2ccc(Br)cc2)coc2cc(OCCCCN3CCOCC3)ccc12` [WZY-1-155], the “HCT116 Cells Proliferation Inhibition %” value in the data set on HCT116 cells (3 μM) stood at 65.3%.
In the data set with HCT116 cells, `CN(C)CCN(C)CCOc1ccc2c(=O)c(-c3ccc(Br)cc3)coc2c1` [WZY-1-193] came in with an inhibition at 1 µM of 26%. Besides, in the data set on OCV-8 Cell, the inhibition at 0.3 µM was 57% and the inhibition at 1 µM worked out at 87%.
Consider `O=c1c(-c2ccc(F)c(F)c2)coc2cc(OCCN3CCNCC3)ccc12` [XDQ-1-9], for which, in the data set with HCT116 cells, the inhibition at 3 µM came to 34% and the inhibition at 10 µM worked out at 94%.
The corresponding values for `O=c1c(-c2ccc(F)c(F)c2)coc2cc(OCCN3CCN(CCO)CC3)ccc12` [XDQ-1-13] are 10% and 61%.
In the data set on HCT116 cells, `O=c1c(-c2ccc(Cl)c(Cl)c2)coc2cc(OCCN3CCN(CCO)CC3)ccc12` [XDQ-1-19] returned an inhibition at 3 µM of 95% and an inhibition at 10 µM of 94%. Also, in the data set with OCV-8 Cell, the inhibition at 0.3 µM worked out at 60% and the inhibition at 1 µM stood at 99%.
The corresponding values for `O=c1c(-c2ccc(Cl)c(Cl)c2)coc2cc(OCCN3CCNCC3)ccc12` [XDQ-1-25] are 93%, 92.5%, 72% and 99%.
